Measured values as given in patent publication US8327467B2, “Anthranilic acid derivative or salt thereof” (Toyama Chemical Co., Ltd., priority 2005, dated 2012).
Where a name gives a salt, the structure may show the parent alone.

Experiments:
[1] = test system: type II collagen-induced arthritis; experiment: Type II collagen-induced arthritis in mice; assay type: in vivo; conditions: male DBA/1 J mice, 10 mg/kg orally once a day from the 21st day to the 35th day
Experimental: Type II Collagen-Induced Arthritis in Mice
Eight-week old male DBA/1 J mice were used (Charles River Laboratories Japan Inc.). 4 mg/mL bovine type II collagen (Collagen Gijutsu Kenshukai) dissolved in 0.01 mol/L of acetic acid aqueous solution and an equal amount of Freund's complete adjuvant (Chondorex) containing 1 mg/mL of killed tuberculosis bacillus were added to prepare an emulsion, and 0.1 mL thereof was intradermally injected at the base of tail. Similar treatment was conducted on the 21st day to cause arthritis. The test compound was suspended in 0.5% methylcellulose aqueous solution, and 10 mg/kg was orally administered once a day from the 21st day to the 35th day. In the control group,0.5% methylcellulose aqueous solution was administered in the same manner. The severity of arthritis was estimated by scoring at zero point for an animal without change; one point for an animal with swelling at the one or two finger joint or light swelling only at the carpal or tarsal joint; two points for an animal with severe swelling at the carpal or tarsal joint or with swelling at three or more finger joints; three points for an animal with severe swelling along the whole foreleg or hindleg and thus counting 12 points at the maximum for the four limbs as arthritis score. […] The inhibitory rate was determined by the following expression. […]

MMP-13 = MMP-13 production inhibition test; assay type: cell-based; conditions: 30 μmol/L; human cartilage derived cell line SW1353, IL-1β 10 ng/mL, 16 hours after stimulation, MMP-13 in culture supernatant by ELISA; read-out: Inhibition rate (%) at 30 μmol/L
Experimental: MMP-13 Production Inhibition Test
6.8×10^3 human cartilage derived cell line SW1353 cells were suspended in 100 μL of Dulbecco modified Eagle's medium supplemented with 10% fetal calf serum, plated on 96-well plates and cultured for 3 days. After the culture medium was changed to Dulbecco modified Eagle's medium containing 0.2% lactalbumin hydrolysate and the cells were cultured for 6 hours, test compounds were added and then IL-1β was added to obtain the final concentration of 10 ng/mL 1 hour later. 16 hours after the stimulation, supernatant was collected and the amount of MMP-13 in the culture supernatant was determined with an ELISA kit (Amersham). The inhibition rate was calculated from the amount of MMP-13 in the presence of a test compound assuming that the amount of MMP-13 was 100% in the absence of the test compound.

Row | Structure (SMILES) | inhibitory action on arthritis (arthritis score) [1] | inhibitory action on bone destruction (bone destruction score, X-ray on the 36th day) [1] | inhibition at 30 µM (MMP-13) [%]
1 | O=C(O)c1ccc(CCc2ccccc2)cc1Nc1ccc(F)cc1 [Example 38, 2-(4-Fluoroanilino)-4-phenethylbenzoic acid] | exhibited inhibitory action | exhibited inhibitory action | 97
2 | Cc1ccccc1Nc1cc(-c2cccc(O)c2)ccc1C(=O)O [Example 280, 4-(3-Hydroxyphenyl)-2-(2-methylanilino)benzoic acid] |  |  | 90
3 | O=C(O)c1ccc(N2CCc3ccccc32)cc1Nc1cccc(O)c1 [Example 286, 2-((3-hydroxyphenyl)amino)-4-(indolin-1-yl)benzoic acid] |  |  | 96
4 | COc1cccc(CCc2ccc(C(=O)O)c(Nc3ccccc3C)c2)c1 [Example 290, 4-(2-(3-Methoxyphenyl)ethyl)-2-(2-methylanilino)benzoic acid] |  |  | 98
5 | O=C(O)c1ccc(CCc2ccc3c(c2)OCCO3)cc1Nc1cccc(O)c1 [Example 293, 4-(2-(2,3-dihydro[1,4]benzodioxin-6-yl)ethyl)-2-((3-hydroxyphenyl)amino)benzoic acid] |  |  | 87
6 | O=C(O)c1ccc(CCc2ccccc2)cc1Nc1cc(-c2ccccc2)n[nH]1 [Example 329, 4-Phenethyl-2-((3-phenyl-1H-pyrazol-5-yl)amino)benzoic acid] |  |  | 96
7 | O=C(O)c1ccc(CCc2ccccc2)cc1Nc1ccc2[nH]ccc2c1 [Example 331, 2-((1H-Indol-5-yl)amino)-4-phenethylbenzoic acid] |  |  | 97
8 | O=C(O)c1ccc(-c2ccccc2)cc1Nc1cccc2cccnc12 [Example 340, 4-Phenyl-2-((quinolin-8-yl)amino)benzoic acid] |  |  | 97
9 | O=C(O)c1ccc(-c2ccccc2)cc1Nc1ccccc1Cl [Example 343, 2-(2-Chloroanilino)-4-phenylbenzoic acid] |  |  | 98
10 | O=C(O)c1ccc(-c2ccccc2)cc1NCC=Cc1ccccc1 [Example 350, 2-(Cinnamylamino)-4-phenylbenzoic acid] |  |  | 91
11 | O=C(O)c1ccc(CCc2ccccc2)cc1Nc1cccc2cnccc12 [Example 360, 2-((Isoquinolin-5-yl)amino)-4-phenethylbenzoic acid trifluoroacetate] |  |  | 97
12 | O=C(O)c1ccc(CCc2ccccc2)cc1Nc1cccc(-n2cccn2)c1 [Example 362, 4-Phenethyl-2-(3-(1H-pyrazol-1-yl)phenylamino)benzoic acid] |  |  | 97
13 | O=C(O)c1ccc(CCc2ccccc2)cc1Nc1ccc(-n2cccn2)cc1 [Example 363, 4-Phenethyl-2-(4-(1H-pyrazol-1-yl)phenylamino)benzoic acid] |  |  | 96
14 | CN(C)c1ccccc1Nc1cc(-c2ccccc2)ccc1C(=O)O [Example 372, 2-((2-(dimethylamino)phenyl)amino)-4-phenylbenzoic acid] |  |  | 97
